{"source": "patent US20100040620A1", "about": "“ANTI-CANCER ANTIBODIES AGAINST LEWISy AND LEWISb ANTIGENS” (priority 2006, published 2010)", "tested_on": "C170 xenografts", "experiment": "Prevention model, C170 xenografts", "format": "in vivo", "conditions": "SC101/29 0.2 mg ip 3 times weekly; 5-FU/leucovorin 12.5 mg/kg iv; days 12-23; p<0.004 ANOVA alone, p<0.02 combination", "method": "Prevention model. The colorectal tumour cell line, C170 was maintained in serial passage in nude mice. For therapy the mice were sacrificed and the tumours excised. The tumour was finely minced and 3 mm^2 pieces were implanted, under anaesthetic (Hypnorm, Roche/Hypnovel, Jannsen), subcutaneously, into 40 male mice which had been randomly allocated to 4 experimental groups. A group of mice were treated with 5-FU/leucovorin (12.5 mg/kg) by intravenous (iv) injection on days 1, 3, 5, 7, 21 and 22. Three times weekly mice were also injected intraperitoneally (ip) with 0.2 mg of SC101/29 mAb. Control mice received either SC101/29 mAb, 5-FU/leucovorin or vehicle alone. Tumour size was measured by callipers and tumour cross-sectional area calculated on days 12, 16, 19 and 23. At the termination of the experiment tumours were weighed to assess anti-tumour efficacy. Animals were weighed to assess the toxicity of treatment."}
{"substance": "5-FU/leucovorin", "values": [{"measurement": "tumour growth of freshly explanted C170 tumours (cross-sectional area)", "value": "inhibition of tumour growth"}]}
